Results as given in patent US10448639B2, “Fungicidal pyrazoles” (FMC CORPORATION, priority 2009, dated 2019).

Key:
[1] = tested on: Puccinia recondita f. sp. tritici; experiment: Test I: wheat leaf rust, preventive spray on wheat seedlings, visual disease rating; settings: wheat leaf rust, preventive; 100 = 100% disease control, 0 = no control relative to controls
Botrytis cinerea = experiment: Test B: tomato Botrytis, preventive spray on tomato seedlings, visual disease rating; settings: tomato Botrytis; 100 = 100% disease control, 0 = no control relative to controls
Septoria tritici = experiment: Test G: wheat leaf blotch, preventive spray on wheat seedlings, visual disease rating; settings: wheat leaf blotch; 100 = 100% disease control, 0 = no control relative to controls
Alternaria solani = experiment: Test C: tomato early blight, preventive spray on tomato seedlings, visual disease rating; settings: tomato early blight; 100 = 100% disease control, 0 = no control relative to controls
[2] = tested on: Erysiphe graminis f sp. tritici; experiment: Test J: wheat powdery mildew, preventive spray on wheat seedlings, visual disease rating; settings: wheat powdery mildew; 100 = 100% disease control, 0 = no control relative to controls
Description: General protocol for preparing test suspensions for Tests A-J: the test compounds were first dissolved in acetone in an amount equal to 3% of the final volume and then suspended at the desired concentration (in ppm) in acetone and purified water (50/50 mix by volume) containing 250 ppm of the surfactant Trem® 014 (polyhydric alcohol esters). The resulting test suspensions were then used in Tests A-J. Spraying a 200 ppm test suspension to the point of run-off on the test plants was the equivalent of a rate of 500 g/ha. Unless otherwise indicated, the rating values indicate a 200 ppm test suspension was used. (An asterisk “*” next to the rating value indicates a 40 ppm test suspension was used.)
The test suspension was sprayed to the point of run-off on wheat seedlings. The following day the seedlings were inoculated with a spore dust of Erysiphe graminis f sp. tritici, (the causal agent of wheat powdery mildew) and incubated in a growth chamber at 20° C. for 8 days, after which time visual disease ratings were made.

Septoria nodorum = experiment: Test F: Septoria glume blotch, preventive spray on wheat seedlings, visual disease rating; settings: Septoria glume blotch; 100 = 100% disease control, 0 = no control relative to controls
[3] = tested on: Puccinia recondita f. sp. tritici; experiment: Test H: wheat leaf rust, curative spray on inoculated wheat seedlings, visual disease rating; settings: wheat leaf rust, curative; 100 = 100% disease control, 0 = no control relative to controls

| SMILES | Test I rating (% disease control) [1] [%] | Test B rating (% disease control) (Botrytis cinerea) [%] | Test G rating (% disease control) (Septoria tritici) [%] | Test C rating (% disease control) (Alternaria solani) [%] | Test J rating (% disease control) [2] [%] | Test F rating (% disease control) (Septoria nodorum) [%] | Test H rating (% disease control) [3] [%] |
| --- | --- | --- | --- | --- | --- | --- | --- |
| Cc1nn(C)c(Nc2cc(C#N)ccc2Cl)c1-c1ccc(F)cc1Cl [compound 235] | 0 | 84 | 17 | 0 | 79 | 0 | 0 |
| Cc1nn(C)c(Nc2ccc(F)cc2Cl)c1-c1ccccc1C(F)(F)F [compound 236] | 68 | 97 | 96 | 0 | 97 | 0 | 0 |
| Cc1nn(C)c(Nc2ccc(F)cc2)c1-c1ccccc1C(F)(F)F [compound 237] | 68 | 99 | 97 | 0 | 97 | 0 | 0 |
| Cc1nn(C)c(Nc2ccc(F)cc2F)c1-c1ccccc1C(F)(F)F [compound 238] | 9 | 99 | 0 | 0 | 43 | 0 | 53 |
| Cc1nn(C)c(Nc2c(F)cc(F)cc2F)c1-c1ccccc1C(F)(F)F [compound 239] | 68 | 99 | 67 | 95 | 100 | 0 | 0 |
| COc1cc(F)c(Nc2c(-c3ccccc3C(F)(F)F)c(C)nn2C)c(F)c1 [compound 240] | 99 | 100 | 99 | 99 | 100 | 0 | 0 |
| Cc1nn(C)c(Nc2ncccc2Cl)c1-c1c(F)cc(F)cc1F [compound 241] | 100 | 99 | 100 | 99 | 100 | 0 | 97 |
| COc1ccc(Nc2c(-c3ccc(F)cc3F)c(C)nn2C)c(Cl)c1 [compound 242] | 91 | 99 | 100 | 37 | 100 | 0 | 0 |
| Cc1nn(C)c(Nc2ccc(Cl)cc2Cl)c1-c1ccc(F)cc1F [compound 243] | 97 | 100 | 100 | 64 | 100 | 0 | 0 |
| COc1ccc(F)c(Nc2c(-c3ccc(F)cc3F)c(C)nn2C)c1 [compound 244] | 0 | 82 | 91 | 0 | 96 | 0 | 0 |
| Cc1nn(C)c(Nc2cc(Cl)ccc2Cl)c1-c1ccc(F)cc1F [compound 245] | 68 | 90 | 97 | 0 | 93 | 0 | 0 |
| Cc1nn(C)c(Nc2ccc(C#N)cc2F)c1-c1ccc(F)cc1F [compound 246] | 80 | 99 | 100 | 51 | 100 | 0 | 0 |
| Cc1nn(C)c(Nc2c(F)cccc2F)c1-c1c(F)cccc1F [compound 247] | 99 | 100 | 100 | 99 | 100 | 60 | 0 |
| Cc1nn(C)c(Nc2c(F)cc(F)cc2F)c1-c1ccccc1Br [compound 248] | 99 | 99 | 100 | 26 | 100 | 73 | 0 |
| COc1cc(F)c(-c2c(C)nn(C)c2Oc2ccc(C)c(OC)c2)c(F)c1 [compound 249] | 96 | 40 | 99 | 0 | 100 | 0 | 0 |
| Cc1ccc(Oc2c(-c3c(F)cc(F)cc3F)c(C)nn2C)cc1C#N [compound 250] | 86 | 98 | 77 | 0 | 100 | 0 | 0 |
| Cc1nn(C)c(Nc2ncc(Cl)cc2Cl)c1-c1ccccc1C(F)(F)F [compound 251] | 86 | 99 | 98 | 0 | 100 | 0 | 0 |
| Cc1nn(C)c(Nc2ncc(Cl)cc2Cl)c1-c1c(F)cccc1Cl [compound 252] | 100 | 100 | 100 | 97 | 100 | 0 | 0 |
| Cc1nn(C)c(Nc2ccc(F)cc2Cl)c1-c1c(F)cccc1C(F)(F)F [compound 253] | 0 | 99 | 0 | 0 | 76 | 0 | 0 |
| Cc1nn(C)c(Nc2ccc(F)cc2)c1-c1c(F)cccc1C(F)(F)F [compound 254] | 0 | 100 | 84 | 0 | 64 | 0 | 0 |
| Cc1nn(C)c(Nc2ccc(F)cc2F)c1-c1c(F)cccc1C(F)(F)F [compound 255] | 0 | 100 | 0 | 0 | 39 | 0 | 0 |
| Cc1nn(C)c(Nc2c(F)cccc2F)c1-c1ccc(F)cc1F [compound 256] | 99 | 99 | 100 | 99 | 100 | 96 | 0 |
| COc1cc(F)c(Nc2c(-c3c(F)cccc3F)c(C)nn2C)c(F)c1 [compound 257] | 97 | 100 | 100 | 99 | 98 | 0 | 0 |
| COc1cc(F)c(-c2c(C)nn(C)c2Oc2ccc(Br)c(C#N)c2)c(F)c1 [compound 258] | 68 | 41 | 89 | 9 | 90 | 0 | 0 |
| COc1cc(F)c(-c2c(C)nn(C)c2Oc2ccc(C)c(C#N)c2)c(F)c1 [compound 259] | 86 | 98 | 100 | 9 | 97 | 0 | 0 |
